Source: patent US20170142972A1, “ANTIMICROBIAL COMPOSITION INHIBITS BACTERIA AND FUNGI” (Troy Corporation, priority 2017, published 2017)

Test system: Pseudomonas aeruginosa (ATCC #10145), Escherichia coli (ATCC #11229), Enterobacter aerogenes (ATCC #13048), and Alcaligenes faecalis (ATCC #25094)
Assay: Challenge Method for Quantifying Antibacterial Effectiveness (two 7-day cycles, mixed bacterial inoculum)
Format: cell-based
Settings: agent alone
Description: In order to quantify the relative antibacterial effectiveness of an antimicrobial composition, samples are prepared by adding various amounts of the antimicrobial composition to identical volumes of a sterile test material. […] Each of the samples is subjected to a two-part challenge procedure and the sample that provides acceptable anti-bacterial protection with the lowest concentration of the antimicrobial composition is identified. Each part of the anti-bacterial challenge consists of a 7-day test cycle. The parts are performed consecutively over 14 test days. […] Challenge testing is accomplished using a mixed bacterial inoculum as the contamination event. These bacteria are Pseudomonas aeruginosa (ATCC #10145), Escherichia coli (ATCC #11229), Enterobacter aerogenes (ATCC #13048), and Alcaligenes faecalis (ATCC #25094). To make the test inoculum, each type of bacteria is grown separately in nutrient broth. Just before use in the challenge test, equal volumes of the four types of bacteria are blended together to make a mixed inoculum. After incubation, both control blanks and samples containing preservative are inoculated with the mixed inoculum. […] Performance ratings of 0, 1, 2, 3 or 4 for each test sample are determined by visual inspection according to the definitions set forth below in Table 1.

O=c1[nH]sc2ccccc12 [BIT, benzisothiazolinone]
concentration alone required to provide the required protection against bacterial growth on Test Day 14 (adhesive): at least 0.013%
concentration alone required to provide the required protection against bacterial growth on Test Day 14 (paint): at least 0.004%
